Laboratory results published in patent US20220175862A1, “CO-ADMINISTRATION COMPOSITION FOR PREVENTING OR TREATING HYPERCHOLESTEROLEMIA, CONTAINING BALLOON-FLOWER EXTRACT OR PLATYCODIN D DERIVED THEREFROM AS ACTIVE INGREDIENT” (University-Industry Cooperation Group of Kyung Hee …, priority 2019, published 2022).

Columns and labels:
HepG2 cells = assay: Cell viability assay (WST); format: cell-based; details: 24 h
Method: Cells were dispensed in a 96-well plate and treated with PG (10 μg/mL, 50 μg/mL, 100 μg/mL, 250 μg/mL, 500 μg/mL) or PD (1 μM, 2.5 μM, 5 μM) for 24 h. After incubation, a WST solution (Daeillab Service, Co., Seoul, Korea) was added to each well and further incubated for 2 h. Next, water-soluble formazan in the medium was measured at 450 nm using an ELISA reader (Molecular Devices, Palo Alto, Calif.).
To investigate whether PG and PD display cytotoxic effects on HepG2 cells, cell viability was examined by WST1 assay following treatment with different concentrations of PG (10 μg/mL, 50 μg/mL, 100 µg/mL, 250 μg/mL, 500 μg/mL) or PD (1 μM, 2.5 μM, 5 μM). […] However, when high concentrations of 500 μg/mL of PG and 5 μM of PD were treated, cell viability was measured as 85% and 86%, respectively.

[1] = tested on: LDLR expression in HepG2 cells; assay: LDLR protein expression by Western blot; format: cell-based; details: 24 h
Method: (§1) Cells were treated with PD and PG for 24 h. Proteins were separated on 10% SDS-PAGE and transferred to nitrocellulose membranes. The membranes were incubated overnight at 4° C. For reference, anti-LDLR, Mylip/IDOL and LXRα were purchased from Abcam (Cambridge, UK), and anti-GAPDH was purchased from Cell Signaling (MA, USA). Further, anti-PCSK9 was purchased from Proteintech (Chicago. USA). The blots were then incubated with HRP-conjugated secondary antibody for 1 h at room temperature and measured using a Pierce ECL Western Blotting Substrate (Thermo Scientific, MA, USA).
There is a report that LDLR mediates the uptake of LDL-induced cholesterol from plasma, lowering blood cholesterol levels. Therefore, it was examined whether PG and PD upregulate LDLR expression in HepG2 cells.
Generally, statins are widely used for lowering blood levels of LDL-C, because they upregulate hepatic LDLR expression and enhance the uptake of LDL-C in the blood. To investigate whether PG and PD have a synergistic effect with statins on LDLR expression, HepG2 cells were treated with PG or PD together with simvastatin for 24 h, and then the expression levels of LDLR were examined by Western blotting.

[2] = tested on: cell surface LDLR in HepG2 cells; assay: Cell surface LDLR analysis by flow cytometry; format: cell-based; details: 2.5 μM of PD, 24 h
Method: Cells were treated as described above for 24 h, harvested, and then incubated at 37° C. for 30 min with anti-LDLR (Abcam, Cambridge, UK) diluted at 1:60 in PBS containing 5% BSA. The cells were washed with 1% BSA in PBS and incubated with Alexa Fluor 488-conjugated goat anti-rabbit IgG (Invitrogen, CA, USA) using a 1:250 dilution at 37° C. for 30 min. The cells were fixed with 0.5% PFA for 10 min, resuspended in PBS, and measured by flow cytometry (FACSCalibur, BD Biosciences, San Jose, Calif., USA). Data were analyzed using a CellQuest Pro software (BD Biosciences, USA).
Next, FACS analysis was performed to examine whether PG and PD increase LDLR expression on cell surface.

[3] = tested on: LDL uptake in HepG2 cells; assay: LDL uptake assay (BODIPY-FL-LDL, confocal microscopy); format: cell-based; details: PD 2.5 μM 24 h, then BODIPY-LDL 1 h
Method: Cells were dispensed in a 24-well plate and treated as described above. After treatment with drugs, the culture medium was removed and replaced with 5 μg/mL of BODIPY-FL-LDL (Invitrogen, CA, USA) at 37° C. for 1 h. The cells were washed with PBS containing 0.3% BSA and fixed with 4% paraformaldehyde (PFA) for 10 min. Nuclei were stained with 1 μg/mL of DAPI in 2% BSA for 1 min and analyzed using confocal microscopy.
Then, confocal microscopy was performed.

LDLR mRNA in HepG2 cells = assay: LDLR mRNA expression by RT-PCR; format: cell-based; details: PD 1 μM, 2.5 μM, 24 h
Method: (§2) Cells were dispensed in a 6-well plate, and treated with PD or PG for 24 h, and then total RNA was extracted using an R&A-BLUE Total RNA extraction kit (iNtRON Biotechnology, Inc., Korea). Next, complementary DNA (cDNA) was synthesized from 1 μg of RNA using a PrimeScript 1 st strand cDNA Synthesis Kit (Takara Biotechnology, Dalian. Liaoning, China). RT-PCR was performed with a Maxime PCR PreMix Kit (i-StarTaq) (iNtRON Biotechnology, Inc., Korea). Sequences of primers used herein are as in Table 1, and GAPDH was used as an internal control.
To define molecular mechanisms underlying the increased LDLR expression by PG and PD treatment, the effects of PG and PD on expression of genes including IDOL and PCSK9, which are known to regulate LDLR protein levels, were first examined.

PCSK9 = PCSK9 Western blot; format: cell-based; details: 24 h, indicated concentrations
Method: as §1

IDOL mRNA in HepG2 cells = assay: IDOL mRNA expression by RT-PCR; format: cell-based
Method: as §2
To examine whether PD suppresses IDOL mRNA expression, co-treatment of T0901317 (LXR agonist) and PD was performed for 24 h. The LXR is a transcription factor that activates a target gene involved in lipid and cholesterol homeostasis, and IDOL is a representative target gene of LXR. In addition. T0901317 increases the expression of IDOL by binding to LXR.

LDLR protein = LDLR protein stability after cycloheximide (CHX) treatment, Western blot; format: cell-based; details: PD 2.5 μM 24 h, then 100 μg/mL CHX
Method: as §1
Considering that IDOL mRNA is decreased upon PG and PD treatment, it could be inferred that PG and PD are able to enhance LDLR protein stability. Therefore, LDLR protein levels remaining after treatment with cycloheximide (CHX) which blocks new protein synthesis were examined.

LXRα = LXRα protein expression by Western blot; format: cell-based; details: PD 1 μM, 2.5 μM, 5 μM, 24 h
Method: as §1

[4] = tested on: hypercholesterolemia-induced rat; details: cited from earlier work

SMILES: C[C@@H]1O[C@@H](O[C@H]2[C@H](OC(=O)[C@]34CCC(C)(C)C[C@H]3C3=CC[C@@H]5[C@@]6(C)C[C@H](O)[C@H](O[C@@H]7O[C@H](CO)[C@@H](O)[C@H](O)[C@H]7O)C(CO)(CO)[C@@H]6CC[C@@]5(C)[C@]3(C)C[C@H]4O)OC[C@H](O)[C@@H]2O)[C@H](O)[C@H](O)[C@H]1O[C@@H]1OC[C@@H](O)[C@H](O[C@@H]2OC[C@](O)(CO)[C@H]2O)[C@H]1O [PD, Platycodin D]
- cell viability (HepG2 cells; 5 μM of PD): 86%
- cytotoxic effects on HepG2 cells (HepG2 cells; PD 1 μM to 2.5 μM): no significant cytotoxic effects
- LDLR expression (Western blot) ([1]; HepG2 cells): induce LDLR expression in HepG2 cells in a dose-dependent manner
- cell surface LDLR levels, as compared with a control [2]: 1.2±0.07 fold change
- increase in the uptake of LDL particles vs untreated control cells [3]: 1.7 fold
- LDLR mRNA expression (LDLR mRNA in HepG2 cells): no significant effects
- proteolytic process of PCSK9 (PCSK9): do not affect
- mRNA levels of IDOL (IDOL mRNA in HepG2 cells; HepG2, 24 h): significantly decreased
- T0901317-induced increase of IDOL mRNA (IDOL mRNA in HepG2 cells; co-treatment PD 2.5 μM and T0901317 10 μM, 24 h): attenuated
- LDLR protein stability after CHX, vs untreated cells (LDLR protein): significantly stable
- LXR-α protein levels (LXRα): did not change
- cholesterol in the body [4]: effect of lowering cholesterol

SMILES: O=S(=O)(c1ccccc1)N(CC(F)(F)F)c1ccc(C(O)(C(F)(F)F)C(F)(F)F)cc1 [T0901317, reference compound]
- mRNA levels of IDOL gene (IDOL mRNA in HepG2 cells; T0901317 10 μM, 24 h): increased

SMILES: CCC(C)(C)C(=O)O[C@H]1C[C@@H](C)C=C2C=C[C@H](C)[C@H](CC[C@@H]3C[C@@H](O)CC(=O)O3)[C@H]21 [simvastatin, reference compound]
- increase in hepatic LDLR levels vs untreated control cells ([1]; simvastatin 1 μM alone, HepG2): approximately 2.2 fold
